# Laboratory results taken from patent publication US20230312510A1, “COMPOUNDS AND METHODS FOR TREATING NEURODEGENERATIVE DISEASES” (The McLean Hospital Corporation, priority 2020, published 2023).
# Assays:
# [1] = system: HeLa cells; assay: Starvation-induced autophagy in HeLa cells (Western blot of LC3B and p62); assay type: cell-based; conditions: EBSS 0-4 hrs, BafA1 10 nM, CQ 20 μM, SPV-94 1 μM
# Method: To limit basal autophagy, cells were incubated in fresh growth medium for 1 hr before starvation. Samples were analyzed by Western blot using autophagic flux markers LC3B and p62 (A) and its expression levels were quantified (10B and 10C).
# [2] = molecular target: T1, Nurr1-LBD (Homo sapiens, UniProt P43354); assay: Radioligand competition binding assay using [3H]-CQ
# [3] = molecular target: T2, full-length Nurr1 (Homo sapiens, UniProt P43354); assay: Luciferase activity assay (p4xNL3-Luc reporter) with full-length Nurr1 in SK-N-BE(2)C cells; assay type: cell-based; conditions: SK-N-BE(2)C cells; read-out: EC50, transcriptional activity of full-length Nurr1
# T2 construct: expressed in transfected cells; host or cells: SK-N-BE(2)C human neuroblastoma cells
# [4] = system: Nurr1-LBD and full-length Nurr1; assay: Luciferase activity assay (Nurr1 transactivation) in MN9D cells; assay type: cell-based, murine
# [5] = system: Nurr1-LBD and full-length Nurr1; assay: Luciferase activity assay (Nurr1 transactivation) in N27-A cells; assay type: cell-based, murine
# [6] = system: mouse embryonic ventral mesencephalic (mVM) primary neurons; assay: Dopaminergic gene expression in mVM primary neurons with or without 6-OHDA; assay type: cell-based
# Method: FIGS. 8A-8D show dopaminergic (DAergic) gene expressions in the absence or presence of 6-OHDA (20 μM) in mouse embryonic ventral mesencephalic (mVM) primary neurons derived from embryonic day 12.5 (E12.5).
# [7] = system: BV2 cells; assay: LPS-induced TNFα mRNA expression in BV2 cells (real-time PCR); assay type: cell-based, mouse; conditions: LPS 1 μg/ml, compound 1 μM
# Text: (§1) Besides the role as an activator of DAergic genes, Nurr1 is known as a repressor of inflammatory genes in astrocytes and microglia (See Saijo et al., Cell 2009, 137, 47-59).
# [8] = system: mouse bone marrow-derived primary macrophages (mBMMs); assay: LPS- or poly(I:C)-induced pro-inflammatory gene expression in mBMMs; assay type: cell-based; conditions: CQ 10 μM, SPV-94 1 μM
# Text: as §1
# [9] = system: N27-A cells; assay: Starvation-induced autophagy and Nurr1 expression in N27-A cells with or without MPP+; assay type: cell-based; conditions: CQ 20 μM, SPV-94 1 μM
# Method: LC3B, p62 and Nurr1 expression levels determined by Western blot (D) were quantified.
# Next, autophagy regulation was assessed in a dopaminergic cell line N27-A in the absence or presence of MPP^+ (1 mM). […] Furthermore, it was observed that MPP disrupted autophagy showing accumulated LC3B-II and remained p62 at the late-stage, which corresponds to the previous studies (See Lim et al., Autophagy 2011, 7, 51-60; Hung et al., PLoS ONE 2014, 9, e91074; Park et al., J Biol Chem 2016, 291, 3531-3540).
# Referring to FIGS. 10D-10G, N27-A cells were treated with vehicle or MPP+ (1 mM) for 24 hrs and then changed with fresh growth medium with or without MPP+ 1 hr before starvation. […] To induce autophagy, N27-A cells were incubated in EBSS for 0-4 hrs, in the absence or presence of MPP+. Samples were analyzed by Western blot using autophagic flux markers LC3B and p62 (D) and its expression levels were quantified (10E and 10F). […] (10G) Nurr1 expression level changes were also analyzed and quantified.
# [10] = system: MPTP-induced PD model mice; assay: Sub-chronic MPTP-induced mice model of PD; conditions: for body weight recovery / cylinder test, rearing numbers, sub-chronic treatment / pole test, time to traverse, sub-chronic treatment / rotarod latency to fall, sub-chronic treatment: L-DOPA 50, CQ 40, SPV-94 5 mg/kg/day; for TH+ DAergic neurons (counting and densitometry): STR, SNpc and OB; for dyskinesia in the abnormal involuntary movements (AIMs) test: chronic administration; for olfactory discrimination test (olfaction), chronic treatment: day 14; for rotarod latency to fall, chronic treatment: day 15
# Method: Sub-chronic MPTP regimen (30 mg/kg/day, 5 days) was introduced.
# [11] = system: N27-A cells; assay: Protection against MPP+-induced toxicity in N27-A cells (MTT, LDH); conditions: 1 mM MPP+
# [12] = molecular target: T1, Nurr1-LBD; assay: Luciferase activity assay (p4xNL3-Luc reporter) with Nurr1-LBD in SK-N-BE(2)C cells; assay type: cell-based; parameters: expressed in transfected cells; host or cells: SK-N-BE(2)C human neuroblastoma cells; conditions: SK-N-BE(2)C cells; read-out: EC50, transcriptional activity of Nurr1-LBD
# [13] = system: MN9D cells; assay: Protection against MPP+-induced toxicity in MN9D cells (MTT reduction, LDH release)
# Method: Cell viability and cytotoxicity were measured by MTT (3-(4,5-dimethylthiazol-2-yl)-2,5-diphenyltetrazolium bromide) reduction assay.
# Cell viability and cytotoxicity were measured by lactate dehydrogenase (LDH) release assay.
# [14] = system: CD-1 mice; assay: Escalating dose maximum tolerated dose study; assay type: in vivo; conditions: oral; for cage side observation, clinical signs: escalating dose from 5 mg/kg
# Method: The objective of this study was to evaluate the escalating dose maximum tolerated dose study of compound of Formula (II) and comparative example
# in CD-1 mice. Animals were monitored on a daily basis with body weights and clinical signs, and any abnormal observation findings were recorded.
# [15] = Pharmacokinetic study after single oral administration; assay type: in vivo, Rat; conditions: Sprague-Dawley (SD), plasma, 20 mg/kg; for AUC(0-t): rat, Male SD Rats, PO; for concentration at 0.083 h / concentration at 0.25 h / concentration at 0.5 h / concentration at 1 h / concentration at 2 h / concentration at 4 h / concentration at 8 h / concentration at 24 h: male, Rat, oral, read-out: Plasma Conc.
# Text: The objective of this study was to characterize the pharmacokinetics (PK) of compound of Formula (II) in Male SD Rats after single intravenous (IV) and oral (PO) administration. […] Following PO administration with comparative example 2: […]
# T1 sequence (P43354 360-595 limits assumed): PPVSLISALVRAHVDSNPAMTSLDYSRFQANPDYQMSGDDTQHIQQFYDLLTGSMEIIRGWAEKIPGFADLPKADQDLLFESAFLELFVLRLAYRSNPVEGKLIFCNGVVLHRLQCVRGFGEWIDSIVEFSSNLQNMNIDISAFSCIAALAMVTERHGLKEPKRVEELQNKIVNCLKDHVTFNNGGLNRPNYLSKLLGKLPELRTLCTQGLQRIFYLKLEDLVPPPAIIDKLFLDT
# T2 sequence (P43354 whole entry): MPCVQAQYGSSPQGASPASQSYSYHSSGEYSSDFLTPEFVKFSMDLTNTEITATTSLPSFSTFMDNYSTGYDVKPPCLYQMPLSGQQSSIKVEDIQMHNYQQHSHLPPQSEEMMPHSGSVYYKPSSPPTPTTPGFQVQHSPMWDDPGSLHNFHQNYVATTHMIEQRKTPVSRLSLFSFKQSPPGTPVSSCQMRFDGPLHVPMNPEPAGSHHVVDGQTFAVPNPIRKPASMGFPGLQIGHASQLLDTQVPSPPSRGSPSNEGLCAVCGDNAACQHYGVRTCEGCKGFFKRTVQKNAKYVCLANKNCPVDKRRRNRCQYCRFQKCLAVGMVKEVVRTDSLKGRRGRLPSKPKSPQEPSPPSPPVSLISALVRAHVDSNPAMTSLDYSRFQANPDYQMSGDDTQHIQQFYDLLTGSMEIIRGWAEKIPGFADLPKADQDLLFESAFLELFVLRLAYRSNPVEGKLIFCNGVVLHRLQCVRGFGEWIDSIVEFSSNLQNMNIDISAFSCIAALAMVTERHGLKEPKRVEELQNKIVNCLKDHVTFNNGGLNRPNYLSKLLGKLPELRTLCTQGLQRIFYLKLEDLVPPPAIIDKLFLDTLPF
smiles,measurement,setting,value
"CO/C1=C\C(C)=C\[C@@H](C)[C@@H](O)[C@@H](C)C/C(C)=C/C=C/[C@H](OC)[C@@H]([C@@H](C)[C@@H](O)[C@H](C)[C@@]2(O)C[C@@H](O)[C@H](C)[C@@H](C(C)C)O2)OC1=O [BafA1, bafilomycin A1]","autophagy process (LC3B, p62)",[1],induced autophagy initiation but inhibited autophagy process termination
"CCN(CC)CCCC(C)Nc1ccnc2cc(Cl)ccc12 (centres unmarked) [CQ, chloroquine]",Ki,[2],0.0284 µM
same,IC50,"[2]; 1,000 nM [3H]-CQ, 0.2 μM Nurr1-LBD, estimated, read-out: half maximal inhibitory concentration (IC50), competition with [3H]-CQ for binding to Nurr1-LBD",1 µM
same,EC50,[3],50 µM
same,transcriptional activities of Nurr1-LBD and full-length Nurr1,[4],enhanced transcriptional activities
same,transcriptional activities of Nurr1-LBD and full-length Nurr1,[5],enhanced transcriptional activities
same,DAergic gene expressions downregulated by 6-OHDA toxicity,"[6]; 6-OHDA 20 μM, CQ 20 μM, SPV-94 0.5 μM",significant recovery of downregulated DAergic gene expressions
same,"mRNA expression levels of DAergic genes (TH, DAT, AADC, VMAT2, c-Ret, Pitx3)","[6]; CQ 20 μM, SPV-94 0.5 μM, vs vehicle",significantly upregulated mRNA expression levels of DAergic genes
same,effects on DAergic gene expression in Nurr1 knockdown condition,[6]; Nurr1 KD,disappeared
same,suppression of TNFα expression compared to LPS only,[7],35.53%
same,"LPS- or poly(I:C)-induced pro-inflammatory gene expressions (TNFα, iNOS, IL-1β, IL-6)",[8],significantly suppressed LPS- or poly(I:C)-induced pro-inflammatory gene expressions
same,"autophagy process (LC3B, p62)",[1],induced autophagy initiation but inhibited autophagy process termination
same,basal Nurr1 expression level compared to VEH,[9],significantly higher
same,body weight recovery,[10],regained body weight after day 8
same,"cylinder test, rearing numbers, sub-chronic treatment",[10],recovered rearing numbers in the cylinder test
same,"pole test, time to traverse, sub-chronic treatment",[10],reduced time to traverse on a pole
same,"rotarod latency to fall, sub-chronic treatment",[10],significantly improved motor deficits on the rotarod latency to fall
same,TH+ DAergic neurons (counting and densitometry),[10],significantly restored DAergic neurons
same,dyskinesia in the abnormal involuntary movements (AIMs) test,[10],did not trigger dyskinesia
same,"olfactory discrimination test (olfaction), chronic treatment",[10],significantly recovered olfaction
same,"rotarod latency to fall, chronic treatment",[10],improved latency to fall on the rotarod on day 15
same,"cytotoxicity, LDH assay",[11],reduced cytotoxicity in LDH assay
same,EC50,[12],50 µM
same,"cytotoxicity, LDH release assay",[13]; 500 μM MPP+,reduced cytotoxicity
same,protective effect against MPP+-induced toxicity under Nurr1 overexpression (OE),"[13]; CQ 100 μM, SPV-94 1 μM, vs Mock",potentiated protective effects
Clc1ccc2c(NCCN3CCN(c4ccnc(-n5ccnc5)n4)CC3)ccnc2c1 [Formula (II)],"cage side observation, clinical signs",[14]; CD-1 mice,no abnormalities were observed
same,AUC(0-t),[15],7340 ng·h/mL
same,concentration at 0.083 h,[15],10.7 ng/mL
same,concentration at 0.25 h,[15],118 ng/mL
same,concentration at 0.5 h,[15],559 ng/mL
same,concentration at 1 h,[15],1180 ng/mL
same,concentration at 2 h,[15],1020 ng/mL
same,concentration at 4 h,[15],953 ng/mL
same,concentration at 8 h,[15],294 ng/mL
same,concentration at 24 h,[15],16.8 ng/mL
"N[C@@H](Cc1ccc(O)c(O)c1)C(=O)O [L-DOPA, L-3,4-dihydroxyphenylalanine]","olfactory discrimination test (olfaction), sub-acute stage",[10],failed to restore olfaction
same,body weight recovery,[10],regained body weight after day 8
same,"cylinder test, rearing numbers, sub-chronic treatment",[10],recovered rearing numbers in the cylinder test
same,"pole test, time to traverse, sub-chronic treatment",[10],reduced time to traverse on a pole
same,"rotarod latency to fall, sub-chronic treatment",[10],significantly improved motor deficits on the rotarod latency to fall
same,Nurr1-immunoreactive cells,[10]; SNpc,failed to protect Nurr1 expressions
same,Iba-1+ microglia numbers,[10]; STR and SNpc,failed to suppress microglial activation
same,TH+ DAergic neurons (counting and densitometry),[10],did not show protective effect
same,dyskinesia in the abnormal involuntary movements (AIMs) test,[10],developed dyskinesia
same,"olfactory discrimination test (olfaction), chronic treatment",[10],could not recover olfaction even with chronic treatment
same,"rotarod latency to fall, chronic treatment",[10],improved latency to fall on the rotarod on day 15
same,velocity during olfactory discrimination,[10]; sub-acute stage,hyperactivity indicated as increased velocity
Cc1cc(NCCCNc2ccnc3cc(Cl)ccc23)nc(N2CCN(C)CC2)n1 [comp. ex. 2],AUC(0-t),[15],250 ng·h/mL
same,concentration at 0.083 h,[15],5.15 ng/mL
same,concentration at 0.25 h,[15],6.68 ng/mL
same,concentration at 0.5 h,[15],9.91 ng/mL
same,concentration at 1 h,[15],13.9 ng/mL
same,concentration at 2 h,[15],14.9 ng/mL
same,concentration at 4 h,[15],12 ng/mL
same,concentration at 8 h,[15],16.5 ng/mL
same,concentration at 24 h,[15],5.92 ng/mL
Cc1cc(NCCCNc2ccnc3cc(Cl)ccc23)nc(N2CCCC2)n1 [comp. ex. 3],AUC(0-t),[15],271 ng·h/mL
same,concentration at 0.083 h,[15],7.71 ng/mL
same,concentration at 0.25 h,[15],16 ng/mL
same,concentration at 0.5 h,[15],16.6 ng/mL
same,concentration at 1 h,[15],19.4 ng/mL
same,concentration at 2 h,[15],23.3 ng/mL
same,concentration at 4 h,[15],19.5 ng/mL
same,concentration at 8 h,[15],14.5 ng/mL
same,concentration at 24 h,[15],3.53 ng/mL
Cc1cc(NCCCNc2ccnc3cc(Cl)ccc23)nc(N2CCCCC2)n1 [comparative example],tolerability at 40 mg/kg,"[14]; CD-1 male mice, 40 mg/kg",cannot be tolerated well
same,clinical signs and outcome at 40 mg/kg,"[14]; CD-1 mice, 40 mg/kg","prone, slightly low temperature and twitched to death on the fourth dosing day"
same,"cage side observation, clinical signs",[14]; CD-1 mice,"weight loss, roach back, rough coat, low temperature, low activity, tremble or/and dying"
